In patent publication US20110009335A1, “Anticancer Treatments” (priority 2008, published 2011):
Starred links: 1 amine or outer side, 2 acyl side, 3 side chain; linkers in the order of their positions; H or OH if unused. Positions of bridges follow the written chain, without caps; N, C: chain ends. Non-standard residues stand in square brackets, D forms with d. Residues, ends and D or L forms follow the SMILES beside them. *: point of attachment. X1 = CC[C@H](C)[C@@H](N[*:1])[C@@H](O)CC(=O)O[C@H](C(=O)[C@H](C)C(=O)[*:2])C(C)C; NMeY = CN[C@@H](Cc1ccc(O)cc1)C(=O)O; dNMeL = CN[C@H](CC(C)C)C(=O)O; Pyruvoyl = CC(=O)C(=O)*

How the values were obtained:
[1] = tested on: MRI-H-121 human renal tumor xenograft; assay: Aplidine with sunitinib, MRI-H-121 xenograft in athymic nude mice (Example 2); type: in vivo; details: doses and schedules tested
Description: (§1) Female athymic nude mice (Harlan Sprague Dawley, Madison, Wis.) were utilized for all experiments. Mice were implanted with tumor fragments or a cell suspension when mice were 5 weeks of age. Animals were housed in ventilated rack caging, 5 mice per cage, with food and water ad libitum. The mice were acclimated for 1 week prior to being implanted with tumor fragments or cell suspensions.
(§2) Tumor measurements were determined as disclosed in Example 1.
(§3) Body weights were recorded on treatment days and when tumor sizes were measured. In those days wherein the two drugs were administered the same day, the combination therapy groups were treated by co-administering the two drugs at the same time, with no attempt to sequence the treatments.
(§4) Aplidine was provided in the form of vials of lyophilized aplidine powder which was reconstituted in Cremophor EL/ethanol/water (CEW) 15/15/70 to a concentration of 0.5 mg/ml. The aplidine solution in CEW was diluted in 0.9% Saline to the dosing formulation concentrations, being the final proportion of CEW of 0.18/0.18/0.84. […]
(§5) Tumor size measurements were recorded twice weekly from the treatment initiation until the termination of the study.
(§6) Mean, standard deviation and standard error of the mean were determined for tumor volume for all animal groups at all assessments. […]

[2] = tested on: A498 human renal tumor xenograft; assay: Aplidine with sunitinib, A498 xenograft in athymic nude mice (Example 2); type: in vivo; details: doses tested; sunitinib 40 mg/kg
Description: as §1, §2, §3, §4, §5, §6

[3] = tested on: AML and ALL samples from pediatric patients; details: de novo or relapsed ALL and AML; cited from earlier work
ALL-MOLT4 cells = details: mechanistic studies; cited from earlier work

## CC[C@H](C)[C@H]1NC(=O)[C@@H](NC(=O)[C@@H](CC(C)C)N(C)C(=O)[C@@H]2CCCN2C(=O)C(C)=O)[C@@H](C)OC(=O)[C@H](Cc2ccc(OC)cc2)N(C)C(=O)[C@@H]2CCCN2C(=O)[C@H](CC(C)C)NC(=O)[C@@H](C)C(=O)[C@H](C(C)C)OC(=O)C[C@@H]1O [aplidine, dehydrodidemnin B] (Pyruvoyl-P[dNMeL]T[X1]LP[NMeY](Me); ester 3-C)
[1]
  antitumor activity as single agent (monotherapy): refractory
[2]
  antitumor activity as single agent (monotherapy): no effect
[3]
  concentration with in vitro cytotoxic activity: 5 nM
ALL-MOLT4 cells
  VEGF secretion: block VEGF secretion
